Patent US8119661B2, “Piperidine derivatives and their use as muscarinic receptor modulators” (AstraZeneca AB, priority 2007, dated 2012)

Columns and labels:
[1] = molecular target: T1, hM5 (human Muscarinic receptor subtype 5) (Homo sapiens, UniProt P08912); test: Human M5 calcium mobilization FLIPR assay; format: cell-based; conditions: CHO cells expressing hM5, intracellular Ca2+ release
T1 construct: expressed in transfected cells; host or cells: CHO cells (Chinese hamster ovary cells, ATCC)
T1 sequence (P08912 1-532): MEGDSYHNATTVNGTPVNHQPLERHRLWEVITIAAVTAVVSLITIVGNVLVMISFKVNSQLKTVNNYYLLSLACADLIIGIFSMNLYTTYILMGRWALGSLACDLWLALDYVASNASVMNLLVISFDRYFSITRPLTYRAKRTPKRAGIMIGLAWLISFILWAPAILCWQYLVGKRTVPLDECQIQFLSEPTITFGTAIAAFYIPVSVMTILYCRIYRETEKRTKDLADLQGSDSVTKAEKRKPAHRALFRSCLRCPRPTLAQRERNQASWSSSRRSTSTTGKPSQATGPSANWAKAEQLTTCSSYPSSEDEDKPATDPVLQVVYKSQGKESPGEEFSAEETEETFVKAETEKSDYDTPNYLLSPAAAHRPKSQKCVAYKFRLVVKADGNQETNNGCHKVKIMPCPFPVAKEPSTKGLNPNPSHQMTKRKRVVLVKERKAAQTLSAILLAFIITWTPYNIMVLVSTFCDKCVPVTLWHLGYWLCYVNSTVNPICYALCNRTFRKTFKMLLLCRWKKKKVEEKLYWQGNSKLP
Description: The compound activity in the present invention (EC50 or IC50) is measured using a 384 plate-based imaging assay that monitors drug induced intracellular Ca^2+ release in whole cells. Activation of hM1 (human Muscarinic receptor subtype 1, gene bank access NM_000738), rM1 (rat Muscarinic receptor subtype 1, gene bank access NM_080773), hM3 (human Muscarinic receptor subtype 3, gene bank access NM_000740NM_000740) and hM5 (human Muscarinic receptor subtype 5, gene bank access NM_0121258), receptors expressed in CHO cells (Chinese hamster ovary cells, ATCC) is quantified in a Molecular Devices FLIPR II™ instrument as an increase in fluorescent signal. Inhibition of hM3 and hM5 by compounds is determined by the decrease in fluorescent signal in response to 2 nM acetylcholine activation.
Prior to experiment, the cell culture medium is removed from the plates by inversion. […] Plates are incubated at 37° C. for 60 minutes prior to start the experiment. The incubation is terminated by washing the cells four times in assay buffer, leaving a residual 25 μl buffer per well. Cell plates are then transferred to the FLIPR, ready for compound additions.
The day of experiment, acetylcholine and compounds are diluted in assay buffer in three-fold concentration range (10 points serial dilution) for addition by FLIPR instrument. For all calcium assays, a baseline reading is taken for 10 seconds followed by the addition of 12.5 μl of compounds, resulting in a total well volume of 37.5 μl. Data is collected every second for 60 pictures and then every 6 seconds for 20 pictures prior to the addition of agonist. For hM3 and hM5, before agonist addition, a second baseline reading is taken for 10 seconds followed by the addition of 12.5 μl of agonist or buffer, producing a final volume of 50 μl. After agonist stimulation, the FLIPR continues to collect data every second for 60 pictures and then every 6 seconds for 20 pictures. The fluorescence emission is read using filter 1 (emission 510-570 nm) by the FLIPR on board CCD camera.
Calcium mobilization output data are calculated as the maximal relative fluorescence unit (RFU) minus the minimal value for both compound and agonist reading frame (except for hM1 and rM1 using only the maximal RFU). Data are analyzed using sigmoidal fits of a non-linear curve-fitting program (XLfit version 4.2.2 Excel add-in version 4.2.2 build 18 math 1Q version 2.1.2 build 18). All pEC50 and pIC50 values are reported as arithmetic means±standard error of mean of ‘n’ independent experiments.

[2] = molecular target: T2, cloned human M4 receptor (Homo sapiens, UniProt P08173); test: hM4 receptor GTPγS binding; format: biochemical; conditions: CHO membranes expressing hM4, [35S]GTPγS binding
T2 construct: purchased Perkin-Elmer RBHM4M; host or cells: CHO cell membranes
T2 sequence (P08173 1-479): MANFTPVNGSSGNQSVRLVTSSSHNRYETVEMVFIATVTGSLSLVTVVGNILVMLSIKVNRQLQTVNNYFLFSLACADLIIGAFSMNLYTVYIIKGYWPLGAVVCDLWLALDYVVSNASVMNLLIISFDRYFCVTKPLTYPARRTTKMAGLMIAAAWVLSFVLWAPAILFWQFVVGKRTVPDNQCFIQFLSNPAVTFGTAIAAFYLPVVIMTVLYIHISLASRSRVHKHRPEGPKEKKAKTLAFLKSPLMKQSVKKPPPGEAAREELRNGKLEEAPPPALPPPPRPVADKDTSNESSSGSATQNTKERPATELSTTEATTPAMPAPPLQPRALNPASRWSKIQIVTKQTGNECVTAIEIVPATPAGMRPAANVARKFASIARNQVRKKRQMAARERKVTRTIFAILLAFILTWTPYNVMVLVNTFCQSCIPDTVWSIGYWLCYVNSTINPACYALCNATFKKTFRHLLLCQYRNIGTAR
Description: Membranes produced from Chinese hamster ovary cells (CHO) expressing the cloned human M4 receptor (human Muscarinic receptor subtype 4, gene bank access NM_000741), are obtained from Perkin-Elmer (RBHM4M). The membranes are thawed at 37° C., passed 3 times through a 23-gauge blunt-end needle, diluted in the GTPγS binding buffer (50 mM Hepes, 20 mM NaOH, 100 mM NaCl, 1 mM EDTA, 5 mM MgCl2, pH 7.4, 100 μM DTT). The EC50, IC50 and Emax of the compounds of the invention are evaluated from 10-point dose-response curves (three fold concentration range) done in 60 μl in 384-well non-specific binding surface plate (Corning). Ten microliters from the dose-response curves plate (5× concentration) are transferred to another 384 well plate containing 25 μl of the following: 10 μg of hM4 membranes, 500 μg of Flashblue beads (Perkin-Elmer) and GDP 40 μM. An additional 15 μl containing 3.3× (60,000 dpm) of GTPγ^35S (0.4 nM final) are added to the wells resulting in a total well volume of 50 μl. Basal and maximal stimulated [^35S]GTPγS binding are determined in absence and presence of 30 μM final of acetylcholine agonist. The membranes/beads mix are pre-incubated for 15 minutes at room temperature with 40 μM GDP prior to distribution in plates (20 μM final). The reversal of acetylcholine-induced stimulation (10 μM final) of [^35S]GTPγS binding is used to assay the antagonist properties (IC50) of the compounds. The plates are incubated for 60 minutes at room temperature then centrifuged at 400 rpm for 5 minutes. The radioactivity (cpm) is counted in a Trilux (Perkin-Elmer).
Values of EC50, IC50 and Emax are obtained using sigmoidal fits of a non-linear curve-fitting program (XLfit version 4.2.2 Excel add-in version 4.2.2 build 18 math 1Q version 2.1.2 build 18) of percent stimulated [^35S]GTPγS binding vs. log(molar ligand). All pEC50 and pIC50 values are reported as arithmetic means±standard error of mean of ‘n’ independent experiments.

| EC50 [1] [µM] | EC50 [2] [µM] | SMILES |
| --- | --- | --- |
| > 49.2 | > 30 | CC(C)OC(=O)N1CCC(C)(N2CCC(N3C(=O)N[C@@H]4CCCC[C@H]43)CC2)CC1 [Example 05, Propan-2-yl 4-[4-[(3aR,7aR)-2-oxo-3a,4,5,6,7,7a-hexahydro-3H-benzoimidazol-1-yl]-1-piperidyl]-4-methyl-piperidine-1-carboxylate] |
| > 49.2 | > 30 | CC1(N2CCC(N3C(=O)N[C@@H]4CCCC[C@H]43)CC2)CCN(C(=O)C2CC2)CC1 [Example 06, (3aR,7aR)-1-[1-[1-(cyclopropanecarbonyl)-4-methyl-4-piperidyl]-4-piperidyl]-3a,4,5,6,7,7a-hexahydro-3H-benzoimidazol-2-one] |
| > 40 | > 30 | CC(C)OC(=O)N1CCC(C)(N2CCC(N3C(=O)C[C@H]4CCCC[C@@H]43)CC2)CC1 [Example 14, Propan-2-yl 4-[4-[(3aR,7aS)-2-oxo-3a,4,5,6,7,7a-hexahydro-3H-indol-1-yl]-1-piperidyl]-4-methyl-piperidine-1-carboxylate] |
| > 40 | > 30 | CC1(N2CCC(N3C(=O)C[C@H]4CCCC[C@@H]43)CC2)CCN(C(=O)C2CC2)CC1 [Example 15, (3aR,7aS)-1-[1-[1-(cyclopropanecarbonyl)-4-methyl-4-piperidyl]-4-piperidyl]-3a,4,5,6,7,7a-hexahydro-3H-indol-2-one] |
| > 40 | > 90 | CC#CCOC(=O)N1CCC(C)(N2CCC(N3C(=O)N[C@H]4CCCC[C@@H]43)CC2)CC1 [Example 16, But-2-ynyl 4-[4-[(3aS,7aS)-2-oxo-3a,4,5,6,7,7a-hexahydro-3H-benzimidazol-1-yl]-1-piperidyl]-4-methyl-piperidine-1-carboxylate] |
| > 40 | > 30 | CCC(=O)N1CCC(C)(N2CCC(N3C(=O)N[C@H]4CCCC[C@@H]43)CC2)CC1 [Example 18, (3aS,7aS)-3-[1-(4-methyl-1-propanoyl-4-piperidyl)-4-piperidyl]-3a,4,5,6,7,7a-hexahydro-1H-benzimidazol-2-one] |
